# Results from patent US7803992B2, “Methods and compositions for expressing an herbicide-tolerant polynucleotide” (Pioneer Hi-Bred International, Inc., priority 2005, dated 2010).
# Legend:
# [1] = system: Heterozygous GAT-HRA corn; assay: Postemergence herbicide application in greenhouse: fresh shoot weight and visual injury; assay type: in vivo; details: for pest or weed control at 200 g/ha: Zea mays, post-emergence, read-out: % Visual Injury; for Fresh Weight: weighed 2 weeks after treatment, untreated 98.8 g
# control maize = assay: Evaluation of herbicide tolerance, spray at V2 stage, injury symptoms after 10-14 days; assay type: in vivo; details: postemergence; tribenuron (Express) 200, chlorimuron (Classic) 200, imazapyr (Arsenal) 200, metsulfuron-methyl (Ally) 35 g ai/ha
# Description: At the V2 stage (Ritchie and Hanway (1982), “How a corn plant develops” Spec. Rep. 48. (Coop. Ext. Ser., Iowa State Univ., Ames, Iowa)), plant heights were measured and herbicides were applied by spray application. Ten to fourteen days after the spray application, the transgenic plants were evaluated for injury symptoms and measured for plant height again in order to determine plant growth rates.
# [2] = system: Heterozygous GAT-HRA corn; assay: Preemergence herbicide application in greenhouse: fresh shoot weight and visual injury; assay type: in vivo; details: for pest or weed control at 200 g/ha: Zea mays, pre-emergence, 672 h, read-out: % Visual Injury; for Fresh Weight: fresh shoots weighed 4 weeks after treatment, untreated 47.0 g
# [3] = system: parent elite stiff stalk inbred corn; assay: as above; assay type: in vivo; details: for pest or weed control at 200 g/ha: Zea mays, pre-emergence, 672 h, read-out: % Visual Injury; for Fresh Weight: fresh shoots weighed 4 weeks after treatment, untreated 36.7 g
# [4] = system: parent elite stiff stalk inbred corn; assay: Postemergence herbicide application in greenhouse: fresh shoot weight and visual injury; assay type: in vivo; details: for pest or weed control at 200 g/ha: Zea mays, post-emergence, read-out: % Visual Injury; for Fresh Weight: weighed 2 weeks after treatment, untreated 76.4 g
# GAT-HRA maize = assay: Evaluation of herbicide tolerance, spray at V2 stage, injury symptoms after 10-14 days; assay type: in vivo; details: postemergence; tribenuron (Express) 200, chlorimuron (Classic) 200, imazapyr (Arsenal) 200, metsulfuron-methyl (Ally) 35 g ai/ha
# Description: GAT-HRA maize plants were evaluated for tolerance to glyphosate and other herbicides. One protocol used in this evaluation was as follows. At the V2 stage (Ritchie and Hanway (1982), “How a corn plant develops” Spec. Rep. 48. (Coop. Ext. Ser., Iowa State Univ., Ames, Iowa)), plant heights were measured and herbicides were applied by spray application. Ten to fourteen days after the spray application, the transgenic plants were evaluated for injury symptoms and measured for plant height again in order to determine plant growth rates.
# Plants were then evaluated at various times after treatment, such as 10 or 14 days after treatment.
# STS ® soybeans = assay: Postemergence herbicide treatment of soybeans in greenhouse, visual injury; assay type: in vivo, soybean
# From the text: When possible, containers were thinned to two uniform plants.
# GAT-HRA soybeans = assay: as above; assay type: in vivo, soybean; details: for % Visual Injury: postemergence, glyphosate 8960, tribenuron-methyl 35, rimsulfuron 35 g/ha
# Description: (§1) Young regenerated transgenic plants were sprayed with 1× glyphosate (1× rate of glyphosate is 1120 g/ha of glyphosate isopropylamine) to cull segregants. Four replications were performed for each treatment. Plants were then treated with various herbicides, including glyphosate and ALS-inhibitor herbicides.
# (§2) Six soybean seeds from each variety to be assayed were planted 1 cm deep in 5.5 (13.97 cm) inch square plastic container of a synthetic growth medium. […] When possible, containers were thinned to two uniform plants. Non-transgenic lines were thinned to two uniform plants per container.
# (§3) Results are expressed below in Table 11 as the mean of four replications.
# [5] = system: Wild Type soybeans (Jack); assay: as above; assay type: in vivo, soybean; details: for % Visual Injury: postemergence, glyphosate 8960, tribenuron-methyl 35, rimsulfuron 35 g/ha
# Description: as §1, §2, §3
# [6] = system: Untransformed Coker 312 cotton; assay: Greenhouse over the top herbicide spray of cotton; assay type: in vivo, Gossypium hirsutum; details: glyphosate 1.5 lb ae/acre, 2 weeks after application; rimsulfuron 16 g active ingredient/hectare without glyphosate
# From the text: Transformed cotton plants were rooted and then transferred to soil for further growth. Plants were then subjected to herbicide spray treatments in a greenhouse. […] Untransformed Coker 312 control plants were dead 2 weeks after glyphosate application. […] Plants transformed with both GAT and HRA were further subjected to an “over the top” application of the sulfonylurea herbicide rimsulfuron at a rate of 16 g active ingredient/hectare. […] In further experiments 32 g ai/ha rimsulfuron were applied to the cotton.
# [7] = postemergence, 200 g/ha (glyphosate 3472 g ae/ha, glufosinate ammonium 1870 g/ha), mean of four replications
# [8] = preemergence, 200 g/ha, mean of four replications
# [9] = postemergence, 200 g/ha (glyphosate 3472 g ae/ha, glufosinate ammonium 1870 g/ha), 0% no injury, 100% plant death, mean of four replications
# [10] = preemergence, 200 g/ha, 0% no injury, 100% plant death, mean of four replications
# [11] = STS ® line 25, glyphosate 8960, tribenuron-methyl 35, rimsulfuron 35 g/ha
# [12] = STS ® line 46, glyphosate 8960, tribenuron-methyl 35, rimsulfuron 35 g/ha
# [13] = STS ®, mean, glyphosate 8960, tribenuron-methyl 35, rimsulfuron 35 g/ha
structure (smiles),measurement,setting,value
CCOC(=O)c1ccccc1S(=O)(=O)NC(=O)Nc1nc(Cl)cc(OC)n1 [Chlorimuron-ethyl],pest or weed control at 200 g/ha,[1]; […],15%
same,Fresh Weight,[1]; [7],95.5 g
same,damage from the treatment,control maize,severely damaged or killed
same,pest or weed control at 200 g/ha,[2],10%
same,Fresh Weight,[2]; [8],39.4 g
same,pest or weed control at 200 g/ha,[3],100%
same,Fresh Weight,[3]; [8],9.3 g
same,pest or weed control at 200 g/ha,[4]; […],93%
same,Fresh Weight,[4]; [7],10.1 g
same,damage from the treatment,GAT-HRA maize,no significant damage
CC(C)C1(C)N=C(c2ncccc2C(=O)O)NC1=O (stereo not drawn) [Imazapyr],pest or weed control at 200 g/ha,[1]; [9],1%
same,Fresh Weight,[1]; [7],97.8 g
same,damage from the treatment,control maize,severely damaged or killed
same,pest or weed control at 200 g/ha,[2]; [10],30%
same,Fresh Weight,[2]; [8],44.2 g
same,pest or weed control at 200 g/ha,[3]; [10],99%
same,Fresh Weight,[3]; [8],0.3 g
same,pest or weed control at 200 g/ha,[4]; [9],100%
same,Fresh Weight,[4]; [7],2.3 g
same,damage from the treatment,GAT-HRA maize,no significant damage
COC(=O)c1ccccc1S(=O)(=O)NC(=O)Nc1nc(C)nc(OC)n1 [Metsulfuron-methyl],pest or weed control at 200 g/ha,[1]; [9],14%
same,Fresh Weight,[1]; [7],75.5 g
same,damage from the treatment,control maize,severely damaged or killed
same,pest or weed control at 200 g/ha,[2]; [10],0%
same,Fresh Weight,[2]; [8],41.1 g
same,pest or weed control at 200 g/ha,[3]; [10],100%
same,Fresh Weight,[3]; [8],0.0 g
same,pest or weed control at 200 g/ha,[4]; [9],100%
same,Fresh Weight,[4]; [7],1.9 g
same,damage from the treatment,GAT-HRA maize,no significant damage
CCS(=O)(=O)c1cccnc1S(=O)(=O)NC(=O)Nc1nc(OC)cc(OC)n1 [Rimsulfuron],% Visual Injury,STS ® soybeans; [11],97%
same,% Visual Injury,STS ® soybeans; [12],97%
same,% Visual Injury,STS ® soybeans; [13],97%
same,% Visual Injury,"GAT-HRA soybeans; event 59, mean",87%
same,% Visual Injury,GAT-HRA soybeans; event 59 line 21,88%
same,% Visual Injury,GAT-HRA soybeans; event 59 line 28,86%
same,% Visual Injury,"GAT-HRA soybeans; event 60, mean",83%
same,% Visual Injury,GAT-HRA soybeans; event 60 line 07,84%
same,% Visual Injury,GAT-HRA soybeans; event 60 line 11,83%
same,% Visual Injury,GAT-HRA soybeans; event 60 line 22,76%
same,% Visual Injury,GAT-HRA soybeans; event 60 line 35,85%
same,% Visual Injury,GAT-HRA soybeans; event 60 line 41,80%
same,% Visual Injury,GAT-HRA soybeans; event 60 line 46,78%
same,% Visual Injury,GAT-HRA soybeans; event 60 line 70,80%
same,% Visual Injury,GAT-HRA soybeans; event 60 line 75,86%
same,% Visual Injury,GAT-HRA soybeans; event 60 line 77,90%
same,% Visual Injury,GAT-HRA soybeans; event 60 line 79,86%
same,% Visual Injury,GAT-HRA soybeans; event 60 line 82,90%
same,% Visual Injury,GAT-HRA soybeans; event 60 line 84,83%
same,% Visual Injury,"GAT-HRA soybeans; event 61, mean",82%
same,% Visual Injury,GAT-HRA soybeans; event 61 line 02,80%
same,% Visual Injury,GAT-HRA soybeans; event 61 line 02B,70%
same,% Visual Injury,GAT-HRA soybeans; event 61 line 05,78%
same,% Visual Injury,GAT-HRA soybeans; event 61 line 14,90%
same,% Visual Injury,GAT-HRA soybeans; event 61 line 18,89%
same,% Visual Injury,GAT-HRA soybeans; event 61 line 24,90%
same,% Visual Injury,GAT-HRA soybeans; event 61 line 33,95%
same,% Visual Injury,GAT-HRA soybeans; event 61 line 34,90%
same,% Visual Injury,GAT-HRA soybeans; event 61 line 47,78%
same,% Visual Injury,GAT-HRA soybeans; event 61 line 49,84%
same,% Visual Injury,GAT-HRA soybeans; event 61 line 51,83%
same,% Visual Injury,GAT-HRA soybeans; event 61 line 60,73%
same,% Visual Injury,GAT-HRA soybeans; event 61 line 62,71%
same,% Visual Injury,GAT-HRA soybeans; event 61 line 99,79%
same,% Visual Injury,"GAT-HRA soybeans; event 64, mean",73%
same,% Visual Injury,GAT-HRA soybeans; event 64 line 41,73%
same,% Visual Injury,GAT-HRA soybeans; event 64 line 47,73%
same,% Visual Injury,[5]; Wild Type line 82,97%
same,% Visual Injury,[5]; Wild Type line Jack,97%
same,% Visual Injury,"[5]; Wild Type, mean",97%
same,pest or weed control at 200 g/ha,[1]; [9],10%
same,Fresh Weight,[1]; [7],99.2 g
same,damage to untransformed control plants,[6],severe damage
same,pest or weed control at 200 g/ha,[2]; [10],0%
same,Fresh Weight,[2]; [8],45.3 g
same,pest or weed control at 200 g/ha,[3]; [10],74%
same,Fresh Weight,[3]; [8],29.8 g
same,pest or weed control at 200 g/ha,[4]; [9],91%
same,Fresh Weight,[4]; [7],12.6 g
COC(=O)c1ccccc1S(=O)(=O)NC(=O)N(C)c1nc(C)nc(OC)n1 [Tribenuron-methyl],% Visual Injury,STS ® soybeans; [11],87%
same,% Visual Injury,STS ® soybeans; [12],88%
same,% Visual Injury,STS ® soybeans; [13],87%
same,damage from herbicide treatment,"GAT-HRA soybeans; 35 g/ha, four replications",no significant damage
same,% Visual Injury,"GAT-HRA soybeans; event 59, mean",59%
same,% Visual Injury,GAT-HRA soybeans; event 59 line 21,58%
same,% Visual Injury,GAT-HRA soybeans; event 59 line 28,60%
same,% Visual Injury,"GAT-HRA soybeans; event 60, mean",55%
same,% Visual Injury,GAT-HRA soybeans; event 60 line 07,46%
same,% Visual Injury,GAT-HRA soybeans; event 60 line 11,71%
same,% Visual Injury,GAT-HRA soybeans; event 60 line 22,45%
same,% Visual Injury,GAT-HRA soybeans; event 60 line 35,49%
same,% Visual Injury,GAT-HRA soybeans; event 60 line 41,38%
same,% Visual Injury,GAT-HRA soybeans; event 60 line 46,49%
same,% Visual Injury,GAT-HRA soybeans; event 60 line 70,40%
same,% Visual Injury,GAT-HRA soybeans; event 60 line 75,69%
same,% Visual Injury,GAT-HRA soybeans; event 60 line 77,56%
same,% Visual Injury,GAT-HRA soybeans; event 60 line 79,69%
same,% Visual Injury,GAT-HRA soybeans; event 60 line 82,61%
same,% Visual Injury,GAT-HRA soybeans; event 60 line 84,71%
same,% Visual Injury,"GAT-HRA soybeans; event 61, mean",54%
same,% Visual Injury,GAT-HRA soybeans; event 61 line 02,41%
same,% Visual Injury,GAT-HRA soybeans; event 61 line 02B,40%
same,% Visual Injury,GAT-HRA soybeans; event 61 line 05,55%
same,% Visual Injury,GAT-HRA soybeans; event 61 line 14,65%
same,% Visual Injury,GAT-HRA soybeans; event 61 line 18,69%
same,% Visual Injury,GAT-HRA soybeans; event 61 line 24,63%
same,% Visual Injury,GAT-HRA soybeans; event 61 line 33,80%
same,% Visual Injury,GAT-HRA soybeans; event 61 line 34,76%
same,% Visual Injury,GAT-HRA soybeans; event 61 line 47,36%
same,% Visual Injury,GAT-HRA soybeans; event 61 line 49,54%
same,% Visual Injury,GAT-HRA soybeans; event 61 line 51,60%
same,% Visual Injury,GAT-HRA soybeans; event 61 line 60,45%
same,% Visual Injury,GAT-HRA soybeans; event 61 line 62,43%
same,% Visual Injury,GAT-HRA soybeans; event 61 line 99,34%
same,% Visual Injury,"GAT-HRA soybeans; event 64, mean",43%
same,% Visual Injury,GAT-HRA soybeans; event 64 line 41,55%
same,% Visual Injury,GAT-HRA soybeans; event 64 line 47,34%
same,% Visual Injury,[5]; Wild Type line 82,97%
same,% Visual Injury,[5]; Wild Type line Jack,97%
same,% Visual Injury,"[5]; Wild Type, mean",97%
same,damage from herbicide treatment,"[5]; herbicide-treated non-transgenic control soybeans, 35 g/ha",killed
same,pest or weed control at 200 g/ha,[1]; [9],8%
same,Fresh Weight,[1]; [7],90.8 g
same,pest or weed control at 200 g/ha,[2]; [10],25%
same,Fresh Weight,[2]; [8],46.8 g
same,pest or weed control at 200 g/ha,[3]; [10],66%
same,Fresh Weight,[3]; [8],32.1 g
same,pest or weed control at 200 g/ha,[4]; [9],100%
same,Fresh Weight,[4]; [7],1.8 g
